# Measurements as given in ChEMBL document CHEMBL4020807, “Synthesis of resveratrol derivatives as new analgesic drugs through desensitization of the TRPA1 receptor” (Bioorg Med Chem Lett, 2017).
# pEC50, pIC50: −log10 of the molar value. The source made the active and inactive calls. No cut-off for these calls is given here.
# Key:
# [1] = biological target: T1, Transient receptor potential cation channel subfamily A member 1 (Homo sapiens, UniProt O75762); assay: Agonist activity at human TRPA1 expressed in HEK293 cells assessed as induction of calcium influx at 30 uM after 6 mins by Fluo-4 dye-based assay relative to AITC; format: cell-based; settings: hek293, 0.1 h
# T1 sequence (O75762 whole entry): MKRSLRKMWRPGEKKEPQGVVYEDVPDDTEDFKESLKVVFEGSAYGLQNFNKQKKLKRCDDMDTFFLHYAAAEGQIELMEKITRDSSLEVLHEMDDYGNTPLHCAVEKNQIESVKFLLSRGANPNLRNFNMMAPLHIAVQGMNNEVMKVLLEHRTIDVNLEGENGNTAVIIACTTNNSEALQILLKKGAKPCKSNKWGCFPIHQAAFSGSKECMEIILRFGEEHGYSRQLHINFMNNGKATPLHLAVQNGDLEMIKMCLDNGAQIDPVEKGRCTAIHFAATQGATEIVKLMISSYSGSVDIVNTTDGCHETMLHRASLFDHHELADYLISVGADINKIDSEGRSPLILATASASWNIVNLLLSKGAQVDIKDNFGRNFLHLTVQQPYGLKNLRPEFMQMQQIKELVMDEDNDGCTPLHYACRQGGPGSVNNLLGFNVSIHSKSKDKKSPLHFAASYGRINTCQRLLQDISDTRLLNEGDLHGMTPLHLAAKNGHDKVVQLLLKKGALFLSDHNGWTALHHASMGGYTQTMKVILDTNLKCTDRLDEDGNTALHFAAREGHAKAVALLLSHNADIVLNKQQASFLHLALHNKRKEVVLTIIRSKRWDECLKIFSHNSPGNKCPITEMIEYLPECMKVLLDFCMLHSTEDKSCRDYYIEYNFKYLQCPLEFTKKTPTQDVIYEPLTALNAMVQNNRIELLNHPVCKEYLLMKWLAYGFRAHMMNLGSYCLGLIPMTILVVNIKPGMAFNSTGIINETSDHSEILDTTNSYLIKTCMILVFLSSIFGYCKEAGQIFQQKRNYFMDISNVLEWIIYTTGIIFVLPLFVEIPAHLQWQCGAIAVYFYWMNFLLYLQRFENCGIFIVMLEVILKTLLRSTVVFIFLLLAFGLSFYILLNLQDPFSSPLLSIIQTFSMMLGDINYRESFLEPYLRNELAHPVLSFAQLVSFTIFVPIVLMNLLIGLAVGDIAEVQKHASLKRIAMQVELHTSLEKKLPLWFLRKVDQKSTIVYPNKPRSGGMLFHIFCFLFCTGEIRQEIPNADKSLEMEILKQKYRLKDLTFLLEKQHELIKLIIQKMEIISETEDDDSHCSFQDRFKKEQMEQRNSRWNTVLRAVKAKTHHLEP
# [2] = biological target: T1, Transient receptor potential cation channel subfamily A member 1; assay: Agonist activity at human TRPA1 expressed in HEK293 cells assessed as induction of calcium influx at 30 uM after 6 mins by Fluo-4 dye-based assay; format: cell-based
# [3] = biological target: T1, Transient receptor potential cation channel subfamily A member 1; assay: Inhibition of human TRPA1 expressed in HEK293 cells assessed as decrease in AITC-induced calcium influx at 10 uM preincubated for 6 mins followed by AITC addition measured for 1 min by Fluo-4 dye-based assay relative to control; format: cell-based
# [4] = biological target: T1, Transient receptor potential cation channel subfamily A member 1; assay: Inhibition of human TRPA1 expressed in HEK293 cells assessed as decrease in AITC-induced calcium influx at 30 uM preincubated for 6 mins followed by AITC addition measured for 1 min by Fluo-4 dye-based assay relative to control; format: cell-based
# [5] = biological target: T1, Transient receptor potential cation channel subfamily A member 1; assay: Inhibition of TRPA1 (unknown origin)
# [6] = biological target: T1, Transient receptor potential cation channel subfamily A member 1; assay: Inhibition of human TRPA1 expressed in HEK293 cells assessed as decrease in AITC-induced calcium influx preincubated for 6 mins followed by AITC addition measured for 1 min by Fluo-4 dye-based assay; format: cell-based
# [7] = biological target: T1, Transient receptor potential cation channel subfamily A member 1; assay: Inhibition of human TRPA1 expressed in HEK293 cells assessed as decrease in AITC-induced calcium influx at 3 uM preincubated for 6 mins followed by AITC addition measured for 1 min by Fluo-4 dye-based assay relative to control; format: cell-based
# [8] = biological target: T1, Transient receptor potential cation channel subfamily A member 1; assay: Inhibition of human TRPA1 expressed in HEK293 cells assessed as decrease in AITC-induced calcium influx at 30 uM preincubated for 6 mins followed by AITC addition measured for 1 min by Fluo-4 dye-based assay relative to resveratrol; format: cell-based
# [9] = biological target: T1, Transient receptor potential cation channel subfamily A member 1; assay: Inhibition of human TRPA1 expressed in HEK293 cells assessed as decrease in AITC-induced current response by whole cell patch clamp method; format: cell-based
# [10] = biological target: T2, Transient receptor potential cation channel subfamily A member 1 (Rattus norvegicus, UniProt Q6RI86); assay: Activation of TRPA1 in Sprague-Dawley rat DRG neuron assessed as induction of current response at -60 mV holding potential at 1 uM incubated for 30 secs by whole-cell patch-clamp assay; settings: 0.5 min
# T2 sequence (Q6RI86 whole entry): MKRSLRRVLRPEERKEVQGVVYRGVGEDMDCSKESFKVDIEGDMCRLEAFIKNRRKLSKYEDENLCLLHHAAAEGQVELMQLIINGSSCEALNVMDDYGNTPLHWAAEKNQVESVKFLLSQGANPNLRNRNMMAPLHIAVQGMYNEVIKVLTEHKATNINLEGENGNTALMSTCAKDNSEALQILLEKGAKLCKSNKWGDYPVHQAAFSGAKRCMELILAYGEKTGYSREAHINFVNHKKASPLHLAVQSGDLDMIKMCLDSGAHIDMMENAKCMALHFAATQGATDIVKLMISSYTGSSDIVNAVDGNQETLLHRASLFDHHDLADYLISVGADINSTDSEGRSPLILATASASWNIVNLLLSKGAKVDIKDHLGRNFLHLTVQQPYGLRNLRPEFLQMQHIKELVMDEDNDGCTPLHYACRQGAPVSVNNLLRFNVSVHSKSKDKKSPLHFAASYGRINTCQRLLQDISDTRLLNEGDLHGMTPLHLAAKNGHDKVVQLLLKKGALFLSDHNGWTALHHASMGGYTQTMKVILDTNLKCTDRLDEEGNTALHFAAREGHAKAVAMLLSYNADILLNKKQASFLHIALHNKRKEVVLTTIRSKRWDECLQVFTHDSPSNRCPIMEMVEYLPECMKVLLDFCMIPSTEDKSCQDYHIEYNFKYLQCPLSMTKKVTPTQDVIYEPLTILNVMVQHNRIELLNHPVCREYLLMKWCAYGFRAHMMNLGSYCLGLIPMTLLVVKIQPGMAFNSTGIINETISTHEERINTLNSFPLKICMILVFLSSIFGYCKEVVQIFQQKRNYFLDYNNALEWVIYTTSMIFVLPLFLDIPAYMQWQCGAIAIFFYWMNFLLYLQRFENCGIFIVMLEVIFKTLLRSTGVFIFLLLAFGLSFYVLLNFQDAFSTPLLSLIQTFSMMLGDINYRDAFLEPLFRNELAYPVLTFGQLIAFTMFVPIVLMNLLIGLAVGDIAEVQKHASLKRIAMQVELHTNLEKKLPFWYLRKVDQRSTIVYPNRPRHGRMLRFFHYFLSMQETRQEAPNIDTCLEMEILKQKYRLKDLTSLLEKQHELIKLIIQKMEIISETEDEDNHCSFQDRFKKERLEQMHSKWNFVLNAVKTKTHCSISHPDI
# [11] = biological target: T2, Transient receptor potential cation channel subfamily A member 1; assay: Activation of TRPA1 in Sprague-Dawley rat DRG neuron assessed as induction of current response at -60 mV holding potential at 300 uM incubated for 30 secs by whole-cell patch-clamp assay; settings: 0.5 min
# [12] = biological target: T1, Transient receptor potential cation channel subfamily A member 1; assay: Agonist activity at human TRPA1 expressed in HEK293 cells assessed as induction of inward current response at 10 uM in presence of TRPA1 antagonist HC-030031 by whole-cell patch-clamp assay; format: cell-based; settings: hek293, 10 µM
# Rattus norvegicus [13] = assay: Induction of nocifensive behavior in Sprague-Dawley rat at 2 mM administered intraplantarly for 5 mins; settings: in vivo, other, 2000 µM
# [14] = biological target: T2, Transient receptor potential cation channel subfamily A member 1; assay: Activation of TRPA1 in Sprague-Dawley rat DRG neuron assessed as induction of current response at -60 mV holding potential at 30 uM incubated for 30 secs by whole-cell patch-clamp assay; settings: 0.5 min
# [15] = biological target: T1, Transient receptor potential cation channel subfamily A member 1; assay: Agonist activity at human TRPA1 expressed in HEK293 cells assessed as induction of inward current response by whole-cell patch-clamp assay; format: cell-based
# [16] = biological target: T1, Transient receptor potential cation channel subfamily A member 1; assay: Desensitization of human TRPA1 expressed in HEK293 cells assessed as decrease in AITC-induced inward current response at -60 mV holding potential preincubated for 1 min followed by AITC induction for 1 min by whole-cell patch-clamp assay; format: cell-based
# [17] = biological target: T1, Transient receptor potential cation channel subfamily A member 1; assay: Activation of human TRPA1 expressed in HEK293 cells assessed as induction of inward current response at -60 mV holding potential at 5 uM incubated for 1 min by whole-cell patch-clamp assay; format: cell-based; settings: hek293, 1 min
# HEK293 = assay: Induction of current response in HEK293 cells at 10 uM by whole-cell patch-clamp assay; format: cell-based; settings: human, hek293, 10 µM
# Rattus norvegicus [18] = assay: Antinociceptive activity in Sprague-Dawley rat assessed as decrease in paw-licking time at 2 mM administered intraplantarly for 5 mins followed by AITC addition measured for 5 mins; format: functional
SMILES,fold change (FC) [1],fold change (FC) [8],other results
Oc1ccccc1/C=C/c1ccccc1,0.6,1.1,pEC50 [2]: < 5.00; inhibition [3]: -5%; inhibition [4]: -9.5%; pIC50 [5]: 5.66 to 5.77; pIC50 [6]: < 4.52; inhibition [7]: -1.9%
Oc1cc(O)cc(/C=C/C2CCCCC2)c1,0.3,0.5,
COc1ccc(/C=C/c2cc(O)cc(O)c2)cc1OC [RHAPONTIGENIN],,0.4,
CCOc1ccc(/C=C/c2cc(O)cc(O)c2)cc1,0.3,-0.2,
CCCOc1ccc(/C=C/c2cc(OCCC)cc(OCCC)c2)cc1,0.3,-0.1,
Clc1cc(Cl)cc(/C=C/c2ccccc2)c1,0.3,0.7,pEC50 [2]: < 4.52; inhibition [3]: 6.2%; inhibition [4]: 8.4%; pIC50 [6]: < 4.52
Oc1cc(O)cc(/C=C/c2ccc(OCc3ccccc3)cc2)c1,0.3,0.7,
CC(C)(C)/C=C/c1cc(O)cc(O)c1,0.3,0.8,
Oc1cc(O)cc(/C=C/c2ccc(OCC3CCCCC3)cc2)c1,0.4,-0.1,
Oc1cc(O)cc(/C=C/c2ccccc2O)c1,0.4,0.6,
Oc1cc(O)cc(/C=C/c2ccccc2)c1 [PINOSYLVIN],0.4,-0.1,
Oc1ccc(CCc2cc(O)cc(O)c2)cc1 [DIHYDRORESVERATROL],0.4,1.2,pEC50 [2]: < 4.52; inhibition [3]: 1.2%; pIC50 [6]: < 4.52
CC(=O)Oc1ccc(/C=C/c2cc(OC(C)=O)cc(OC(C)=O)c2)cc1 [TRIACETYLRESVERATROL],0.5,0.5,
COc1ccc(/C=C/c2cc(O)cc(O)c2)cc1 [RESVERATROL 4'-METHYL ETHER],0.3,0.3,
Oc1cc(O)cc(/C=C/c2cccc3ccccc23)c1,0.3,1.1,
Oc1ccc(/C=C/c2ccccc2)cc1 [(E)-4-STYRYLPHENOL],0.4,0.1,
COc1ccccc1/C=C/c1ccccc1,0.4,0.3,pIC50 [5]: 5.66 to 5.77
Clc1ccc(/C=C/c2ccccc2)cc1,0.3,-0.2,
CCOc1ccc(/C=C/c2cc(OCC)cc(OCC)c2)cc1,0.4,0.4,
Oc1ccc(/C=C/c2ccc(O)c(O)c2)cc1,0.4,-0.3,

SMILES,fold change (FC) [1],fold change (FC) [8],other results
Oc1ccc(/C=C/c2cc(O)cc(O)c2)cc1 [RESVERATROL],0.4,,pEC50 [2]: < 4.52; inhibition [3]: 2.5%; inhibition [4]: 37.5%; pIC50 [9]: 6.12; pIC50 [6]: < 4.52; inhibition [7]: -3.8%
COc1cc(CNC(=O)CCCC/C=C/C(C)C)ccc1O [CAPSAICIN],,,Activity [10]: Active
C=CCN=C=S [ALLYL ISOTHIOCYANATE],,,Activity [11]: Active
COc1ccc(/C=C/c2cc(OC)cc(OC)c2)cc1 [TRISMETHOXYRESVERATROL],0.3,0.3,
O=C(Nc1ccc(O)cc1)c1cc(O)cc(O)c1,0.3,-0.6,
COc1cc(O)cc(/C=C/c2ccccc2)c1 [PINOSYLVIN METHYL ETHER],0.7,0.6,
Oc1cc(O)cc(/C=C/c2ccc3c(c2)OCO3)c1,0.3,0.6,
COc1ccc(NC(=O)c2cc(O)cc(O)c2)cc1,0.3,-0.4,pEC50 [2]: < 4.52; inhibition [3]: -8.2%; inhibition [4]: 11.8%; pIC50 [6]: < 4.52; inhibition [7]: -5.9%
CCCOc1ccc(/C=C/c2cc(O)cc(O)c2)cc1,0.3,0.1,
Oc1cc(O)cc(/C=C/c2ccc(Cl)cc2)c1,0.3,0.5,pEC50 [2]: < 4.52; inhibition [3]: 5.6%; inhibition [4]: 18.6%; pIC50 [6]: < 4.52; inhibition [7]: 6.1%
Oc1ccc(-c2cc(O)cc(O)c2)cc1,0.5,0.8,
Oc1cc(O)cc(/C=C/c2cc(O)c(O)c(O)c2)c1,0.3,0.4,
Clc1ccc(/C=C/c2cc(Cl)cc(Cl)c2)cc1,0.3,0.8,pEC50 [2]: < 4.52; inhibition [3]: 7.2%; inhibition [4]: 20.6%; pIC50 [6]: < 4.52; inhibition [7]: 3%
Oc1cc(O)cc(/C=C/c2cc(Br)c(O)c(Br)c2)c1,0.3,0.8,
COCOc1ccc(/C=C/c2cc(OCOC)cc(OCOC)c2)cc1,0.5,0.4,
"COc1cc(/C=C/c2ccccc2)cc(OC)c1 [3,5-O-DIMETHYLPINOSYLVIN]",0.6,0.5,
Oc1cc(O)cc(/C=C/c2ccc(O)c(O)c2)c1 [PICEATANNOL],0.3,0,
Oc1ccc(/C=C/c2cc(Br)c(O)c(Br)c2)cc1,0.5,1.4,Activity [12]: Dose-dependent effect; Activity (Rattus norvegicus [13]): Non-Toxic; pEC50 [2]: < 5.00; Activity [14]: Active; inhibition [3]: 37.3%; Activity [15]: Not Active; Activity [16]: Dose-dependent effect; Activity [17]: Active; inhibition [4]: 66.7%; pIC50 [6]: 4.79; inhibition [7]: 14%; Activity (HEK293): Non-Toxic; Activity (Rattus norvegicus [18]): Active
CCCCCCOc1ccc(/C=C/c2cc(O)cc(O)c2)cc1,0.5,0.1,
Oc1cccc(/C=C/c2cc(O)cc(O)c2)c1,0.4,0.8,pEC50 [2]: < 4.52; inhibition [4]: 1.4%; pIC50 [6]: < 4.52
